What was measured:
human TRPV1 = target: T1, human TRPV1 (Homo sapiens, UniProt Q8NER1); experiment: Acid activation assay, ratiometric calcium imaging; format: cell-based; conditions: HEK293-F cells expressing human TRPV1, Example 56 at 3 μM; for block of TRPV1-mediated increase in intracellular calcium concentration in response to pH 5.5: acid pH 5.5; for block of TRPV1-mediated increase in intracellular calcium concentration in response to capsaicin: capsaicin 1 μM
T1 construct: expressed in transfected cells; host or cells: HEK293-F cells, transient transfection
Method: The differential effects of TRPV1 antagonists on capsaicin- or acid-induced responses were verified by ratiometric calcium imaging. Transiently transfected HEK293-F cells expressing human TRPV1 were incubated with 5 μM Fura-2AM for 30 minutes at 37° C. Intracellular calcium concentration was measured on an imaging system consisting of the X-Cite™ 120 Fluorescence Illumination System (EXFO) and a Digital Camera (C4742-95, Hamamatsu Photonics) connected to an Olympus 1×71 microscope. Through the control of Slide Book 4.2 software, fluorescence was measured during excitation at 340 and 380 nm; the ratio of the fluorescence at both excitation wavelengths (F340/F380) was monitored. D-PBS, pH 7.4 (Invitrogen, catalog no. 14287) was used as the extracellular solution. Acidic buffer was prepared by titrating D-PBS, pH 7.4 with 7 N HCl to pH 5.5. Agonists and antagonists were prepared in the pH 7.4 or 5.5 solutions. Rapid solution switch was achieved by using a ValveLink system.
Over the time 1250-second course, the cells were challenged sequentially with solutions containing Example 56 (3 μM), Example 56 (3 μM) plus capsaicin (1 μM), Example 56 (3 μM) plus acid (pH 5.5), or acid (pH 5.5) alone. The black bars above the traces designate addition and duration of solution applications. Spaces between horizontal bars represent periods in which cells were perfused with D-PBS, pH 7.4 alone. […]

[1] = Assessment of hemodynamic profile in anesthetized rat; format: in vivo; conditions: i.v. infusion 3, 10 and 30 mg/kg/30 minutes/dose, relative to vehicle control group
Method: Male Sprague-Dawley rats were anesthetized with Inactin, instrumented, and allowed to stabilize. Following a 30 minute baseline period, test compound was infused via intravenous administration at 3, 10, and 30 mg/kg/30 minutes/dose in a low volume PEG-400 vehicle (1 mL/kg) or 20:40:40 dimethylacetamide:propylene glycol:PEG-400 vehicle (1 mL/kg). A separate group of animals received infusion of vehicle alone. Mean arterial pressure (MAP) and heart rate (HR) were observed and recorded.

T1 sequence (Q8NER1 whole entry): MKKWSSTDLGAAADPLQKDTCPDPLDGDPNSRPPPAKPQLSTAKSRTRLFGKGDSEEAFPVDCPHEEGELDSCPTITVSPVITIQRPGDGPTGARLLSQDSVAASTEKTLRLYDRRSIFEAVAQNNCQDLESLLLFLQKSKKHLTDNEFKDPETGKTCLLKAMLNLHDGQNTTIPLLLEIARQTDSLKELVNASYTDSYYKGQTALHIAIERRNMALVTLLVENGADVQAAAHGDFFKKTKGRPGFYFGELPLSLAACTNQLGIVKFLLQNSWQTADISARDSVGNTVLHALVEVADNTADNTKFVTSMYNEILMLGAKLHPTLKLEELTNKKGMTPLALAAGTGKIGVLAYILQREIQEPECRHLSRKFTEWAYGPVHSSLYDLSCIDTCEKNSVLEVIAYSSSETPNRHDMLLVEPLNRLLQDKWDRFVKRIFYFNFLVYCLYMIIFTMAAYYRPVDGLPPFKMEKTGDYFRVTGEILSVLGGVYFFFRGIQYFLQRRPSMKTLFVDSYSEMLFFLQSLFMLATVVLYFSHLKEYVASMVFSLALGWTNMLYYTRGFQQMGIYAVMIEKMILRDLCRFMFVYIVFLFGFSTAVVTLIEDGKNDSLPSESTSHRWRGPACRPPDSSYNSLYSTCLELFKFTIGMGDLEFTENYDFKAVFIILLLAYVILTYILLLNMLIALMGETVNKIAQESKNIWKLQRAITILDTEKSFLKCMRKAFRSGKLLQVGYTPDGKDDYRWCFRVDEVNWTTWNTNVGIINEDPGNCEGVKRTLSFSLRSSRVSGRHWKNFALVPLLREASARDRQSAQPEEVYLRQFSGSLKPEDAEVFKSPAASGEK

| Substance | block of TRPV1-mediated increase in intracellular calcium concentration in response to pH 5.5 (human TRPV1) | block of TRPV1-mediated increase in intracellular calcium concentration in response to capsaicin (human TRPV1) | Change in MAP or HR ≧ 15% ? [1] |
| --- | --- | --- | --- |
| N-[(4R)-2,2-diethyl-6-fluoro-3,4-dihydro-2H-chromen-4-yl]-N-(3-methylisoquinolin-5-yl)urea [Example 56] | did not completely block | completely blocked | No (an observed increase or decrease of less than or equal to 15% in MAP (mean arterial pressure) or HR (heart rate) in the test group of animals relative to the vehicle control group is indicated as “No” in the table) |
| N-[(4R)-2,2-diethyl-8-fluoro-3,4-dihydro-2H-chromen-4-yl]-N-(3-methylisoquinolin-5-yl)urea [Example 62] | did not completely block | completely blocked | No (an observed increase or decrease of less than or equal to 15% in MAP (mean arterial pressure) or HR (heart rate) in the test group of animals relative to the vehicle control group is indicated as “No” in the table) |
